Here are results for 15 molecules from patent US20090180958A1, “Diagnostic and therapeutic agents” (Karyon-CTT Ltd., priority 2005, published 2009).

For assay [1], the system named is human lung tumor tissue. Particulars: enriched peptide sequences collected from ex vivo panning rounds four to six. The text has this: Phage display libraries. Standard procedures according to Smith and Scott (1993) were used. Phage display libraries used for screening of clinical samples were cloned in fUSE5 vectors and were of the structure X7 and X10, thus they were linear containing seven or ten random amino acids. The libraries were used separately or as a mixture. The E. coli strain K91kan was used as host for phage amplification.
Subtractional panning. Bio-panning was started with depletion of phage clones binding to normal lung. Normal lung tissue taken from surgical lung resection, removed during dissection of tumor, was placed in ice cold DMEM (Dulbecco's medium) containing protease inhibitors (PI); 10 mM PMSF ([…]), Aprotinin (10 mg/ml) Leupeptin (10 mg/ml). Tissue samples were minced with a razor blade in a small cell culture plate in 1 ml of DMEM-PI. The samples were transferred to an eppendorf tube and washed with 1 ml DMEM-PI.
Samples were centrifuged at 4000 rpm for 5 min and were then incubated with 10^10 transforming units (TU) of phage (from one or more peptide libraries) in 1 ml DMEM-PI at 25° C. for 45 min. After this the samples were washed three times with DMEM-PI containing 1% BSA (bovine serum albumin).
Phage display on clinical tumor samples. Tissue samples were surgically removed from primary tumors of non-small cell lung cancer patients and placed in ice DMEM-PI. Part of sample was taken for pathological examination. The type and nature of the tumor samples were first verified as being NSCLC. After that, specification of subtype of NSCLC and its stage was done by pathologists.
Tissue samples were minced with a razor blade in a small cell culture plate in 1 ml of DMEM containing protease inhibitors. The samples were transferred to an eppendorf tube and washed with 1 ml DMEM-PI.
Samples were centrifuged at 4000 rpm for 5 min and were then incubated with 10^10 TU of phage (from one or more peptide libraries) in iml DMEM-PI at 25° C. for 15 min. After this the samples were washed three times with DMEM-PI containing 1% BSA (bovine serum albumin).
1 ml K91kan bacteria, OD600: 1-1.5, in LB containing 100 μg/ml kanamycin (kan) were infected with the washed pellet containing selectively attached phage particles at 25° C. for 25 min. After infection volume was increased to 2 ml with LB containing 100 μg/ml kan.
Then infected bacteria were plated on LB agar plates containing 40 μg/ml tetracycline (tet) as follows: Two parallel plates of three dilutions (1:50, 1:500, 1:5000) and the rest of the above K91kan culture in 200 μl aliquots. The plates were incubated overnight at +37° C.
The following day 24-48 colonies were picked from the LBtet plates into 96-well micro-plates for sequencing of the phage DNA. Alternatively the clones were stored for later analysis at −20° C.
Monitoring of enrichment of peptides.

Assay [2] has as its system A549 cells. In words: Fluorescent targeting agent staining of fixed cells. It is filed as cell-based, human. The settings on record: 50 μg/ml in PBS, pH 7.4; methanol-fixed A549 cells.
Method: (§8) A549 cells and HeLa cells (described in Example 18) were grown on glass slides, washed with PBS and then fixed with methanol. The fluorescent targeting agent F5M-A49 (described in Example 10) was used to stain these cells as follows: Cells were first blocked with blocking buffer (1.0% BSA, 0.05% Tween20 in PBS, pH 7.4) for one hour at 20° C. The cells on the glass slides were incubated with 20 μl of F5M-A49 targeting agent (50 μg/ml in PBS, pH 7.4). As control, binding of F5M-A49 was competed with 20 μl of IS257 targeting unit (free peptide described in Example 3), 500 μg/ml in PBS, pH 7.4) prior to addition of the targeting agent. As negative controls, cells not incubated with any targeting agent were used. After the staining the cells were mounted on object glasses with mountex (Histolab Products Ltd). After this cells were viewed under a fluorescent microscope (Carl Zeiss Microscopy, Jena, Germany).
In assay [3] the test system is HeLa cells. Particulars: 50 μg/ml in PBS, pH 7.4; methanol-fixed HeLa cells.
Method: as §8
For assay [4], the system named is NSCLC cell line NCI-H23. The settings on record: wells coated at 30 μg/ml, 75000 cells, 30 minutes at 37° C. The method, then: (§1) Preparation of plates for assays. Wells of Reacti-Bind Maleimide activated clear strip plate (Pierce, Prod#. 15150) were coated with targeting agents of this invention at a concentration of 30 μg/ml. The incubation was carried out of overnight at 20° C. The binding buffer containing unbound peptide was removed from the wells.
(§2) The wells were blocked with blocking buffer (1.0% BSA, 0.05% Tween20 in phosphate buffer saline (PBS) pH 7.0. PBS was prepared as follows: […] of NaCl, 1 g of KCl, 7 g of Na2HPO4×2H2O and 1 g of KH2PO4 were dissolved to 1000 ml of deionized H2O). Blank wells as controls were prepared by treating empty wells with blocking buffer. The plates were incubated 1 hour 30 min at 20° C.
(§3) After incubation the plate was washed three times with PBS. Cell binding assays. 75000 cells in volume of 150 μl of medium were added into coated wells and were incubated for 30 minutes at 37° C. After cell binding, the wells were washed with PBS for 30 minutes. Detection of targeting agent bound cells were based on the MTT assay (described in detail in Example 23, Cytotoxicity). 10 μl of MTT reagent and 90 μl of medium were added to the wells. The plate was incubated for three hours at +37° C. After the incubation, 100 μl of lysis buffer was added to the wells and let to incubated o/n 37° C. On following day the absorbance of plate was measured at 560 nm with ELISA-reader (ThermoLabsystems, multiskan EX).
(§4) Cell lines NCI-H23, NCI-H520, A549, HeLa and NIH3T3 (described in Example 18) and targeting agents HP199, HP201 and HP205 (described in Examples 5, 6, 17) were used in the cell binding.
(§5) The results are shown as measured absorbance at 560 nm.

The test system of assay [5] is NSCLC cell line NCI-H520. Particulars: wells coated at 30 μg/ml, 75000 cells, 30 minutes at 37° C. The procedure: as §1, §2, §3, §4, §5
The subject of assay [6] is NSCLC cell line A549. The settings on record: wells coated at 30 μg/ml, 75000 cells, 30 minutes at 37° C. The method, then: as §1, §2, §3, §4, §5
The test system of assay [7] is NIH3T3, mouse fibroblast cell line. The settings on record: wells coated at 30 μg/ml; 75000 cells, 30 minutes at 37° C.; control cell line NIH3T3. The method, then: as §1, §2, §3, §4, §5
Assay [8] relates to PASMC, human primary pulmonary artery smooth muscle cell line. The settings on record: wells coated at 30 μg/ml; 75000 cells, 30 minutes at 37° C.; control cell line PASMC. The procedure:
as §1, §2, §3, §4, §5

For assay [9], the system named is A549, NCI-H23, NCI-H520, NCI-H460, C8161/M1, HeLa, NIH3T3, E10V, SVEC4-10 cell lines. In words: Cytotoxicity assay (MTT). The settings on record: 7.5 μg/ml, after 1 h treatment; positive control. It is filed as cell-based. The procedure: In this assay cell lines were exposed to two different concentrations (50 μg/and 500 μg/ml) of IS257 targeting unit (described in Example 3) for two to three days to test the toxicity of the peptides. The measurement of cell viability was done with MTT (Thiazolyl blue, Sigma M-5655 ) tetrazolium salt. MTT is cleaved to water-insoluble formazan dye by the “succinate-tetrazolium reductase” system which is active only in viable cells. After formazan was solubilized by 10% SDS-0.01 M HCl, it was quantified in an ELISA spectrometer (ThermoLabsystems Multiscan EX) at 560 nm. CuSAO2 [trans-bis(salicylaldoximato) copper(II)] (Elo HO, Lumme PO., 1985) 7.5 μg/ml was used as a positive control for 100% toxicity.
Procedure. Cells were trypsinized from the cell culture dish (ø9 cm) with 1 ml of TE for 1-5 minutes and moved to a 50 ml Falcon tube. […]
Then 40 μl of IS257 targeting unit in appropriate medium were added to the wells in two concentrations, so that final concentrations were 50 μg/ml and 500 μg/ml, and the volume of the wells was raised back to 100 μl. […] The next day the cell morphology was analyzed with a microscope. […]
The next day, the MTT assay described above was performed. The viable count (v.c.) was calculated as:
Average toxicated cell absorbance−Average DMEM absorbance=Viable count Average living cell absorbance−Average DMEM absorbance […]

Assay [10] deals with PASMC. The settings on record: 5 pM, 30 min at 37° C.; control cell line PASMC. The procedure:
(§6) 5000 cells, A549, NCI-H23, NCI-H520, NCI-H460, and control cells PASMC and HeLa (described in Example 18), are grown in multi-well plates, according to the conditions described in Example 18.
(§7) After 30 min of incubation cells are washed 5 times with PBS. PBS is removed and cells are lysed by shaking in Inducer Solution (Perkin-Elmer Ltd) for 15 min. After this, fluorescence is measured by time resolved fluorescence using a Victor III fluorometer (Perkin-Elmer Ltd).

Assay [11] relates to HeLa. Particulars: 5 pM, 30 min at 37° C.; control cell line HeLa. The method, then: as §6, §7

As for SRAPVAP, in assay [1], the Frequency is 2.

Take “CH3C(O)-Ala-Arg-Arg-Pro-Lys-Leu-Asp-Gly-Ala-Ala-Gly-NH—(CH2)3—(O—CH2CH2)3—CH2—NH—C(O)CH2CH2—C(O)—NHCH2CH2S—C2H3(COOH)—C(O)—NH—(C20H11O5) [F5M-A49]”: the “staining of cells (fluorescent microscope)” value is given as “strong staining” in assay [2] and “no staining” in [3].

Turning to “H-Ala-Asp-Gly-Ala-asp-Pro-Leu-Lys-Arg-Ala-Arg-Gly-Ala-Ala-Gly-NH-CH2CH2—O—CH2CH2—O—CH2CH2—O—CH2—C(O)-Gly3-NHCH2CH2SH [HP205, reference compound]”, the “binding of cells to immobilized targeting agent (absorbance at 560 nm)” value (from here on “binding of cells”) in assay [4], in [5] and in [6] was “do not bind” each time.

With ARLPQVELSA, the Frequency in assay [1] was 3.

As to “Ala-Asp-Gly-Ala-Ala-Arg-Arg-Pro-Lys-Leu-Asp-Gly-Ala-Ala-Gly-NH—CH2CH2—O—CH2CH2—O—CH2CH2—O—CH2—C(O)-Gly-Gly-Gly-NHCH2CH2SH [HP199]”, the “binding of cells” value in assay [7] is recorded as “do not”; in [4] it was “bind selectively”; in assay [5], “bind selectively”; in assay [8], “do not”; in assay [6], “bind selectively”.

SRAPNSVQHD displayed a Frequency in assay [1] of 2.

In the case of `[Cu+2].[O-]c1ccccc1C=NO.[O-]c1ccccc1C=NO` [CuSAO2, trans-bis(salicylaldoximato) copper(II), reference compound], the cell killing in [9] turned out to be 100%.

Ac-ARRPKLD-GAAG-PEG-G3-EAT [HP201]: the “binding of cells” value in assay [7] is recorded as “do not”; in [4] it was “bind selectively”; in [5], “bind selectively”; in assay [8], “do not”; in assay [6] it was “bind selectively”.

In assay [1], ARMPPRS gave a Frequency of 2.

For ARRPKLD [Ala-Arg-Arg-Pro-Lys-Leu-Asp], in [1], the Frequency is 22.

As for ARPPKGVNWT, in [1], the Frequency amounted to 3.

ARAPGVMPTT gave a Frequency in [1] of 2.

Molecule SRLPSAGTFQ registered a Frequency in assay [1] of 2.

Consider SRNPGLLTVR, for which the Frequency in assay [1] came to 2.

As to “CH3C(O)-Ala-Arg-Arg-Pro-Lys-Leu-Asp-Gly-Ala-NHCH2CH2S-p-CH2CONH-benzyl-DTPA europium chelate [A48-Eu]”, the “binding of targeting agent to cells” value in [10] and in [11] was “no binding” throughout.
